# Columns and labels:
# [1] = test system: choroid plexus (ChP) epithelial cells; experiment: Calcium imaging of LV ChP explants exposed to plasma; format: cell-based, mouse; conditions: LV ChP explant, FoxJ1-Cre::GCaMP6f mice
# Procedure: […] Imaging and analyses were performed as described (12). Plasma (using citrate as anti-coagulant instead of EDTA, same protocol as described above) was delivered to explants by topical application from a glass capillary needle and serum was delivered to the lateral ventricle of live mice during imaging through the injection cannula. Serum was prepared by collecting blood using the same approach as described above, incubating on ice for 30 min. and then centrifuging for 10 min. at 5,000 g twice to separate the supernatant.
# [2] = test system: intraventricular hemorrhage (IVH) model; experiment: E14.5 IVH model with calcium signaling disruption (LiCl pretreatment or EDTA), MRI and infusion test; format: in vivo, mouse
# Description: Timed pregnant mice (E14.5) were anesthetized with isoflurane and kept warm. Following laparotomy, AAV solution or age-matched whole blood was delivered into the lateral ventricle of each embryo (located visually) using glass capillary pipettes. The uterine horns were returned to the abdomen and the incisions sutured. When age-matched whole blood was used, the donor mouse was anesthetized with ketamine/xylazine and warmed. Fresh blood was obtained from the jugular veins with a glass capillary pipette and immediately delivered to the recipient.
# Mice were imaged using Bruker BioSpec small animal MRI (7T) at P14 or P25 while under anesthesia by isoflurane. A warm pad was used to maintain body temperature. Breathing rate and heart rate were monitored to reflect the depth of anesthesia. All T2 images were acquired using the following criteria: TE/TR=60/4000; Ave=4; RARE=4; slice thickness=0.6 mm.
# Constant aCSF infusion testing was performed as previously described (23). In summary, a single catheter was implanted into the lateral ventricle of a mouse under anesthesia. The catheter infused aCSF at a constant rate and monitored intracranial pressure (ICP). The Marmarou model of cerebrospinal fluid (CSF) dynamics for constant rate infusions were used to calculate parameters describing cerebrospinal fluid (CSF) dynamics by a non-linear least squares fit of the model to the intracranial pressure (ICP) data (62).
# NKCC1 = experiment: LiCl ICV pretreatment in adult IVH model, ChP pNKCC1 immunoblot; format: in vivo, mouse; conditions: adult mice; ICV LiCl 50 mM, 5 μL, 30 min. prior to blood; after 48 hrs
# Description: P4: pups were anesthetized by hypothermia. An incision was made along the midline of the scalp to expose the skull. A 26 G needle was used to pierce the skull directly above the lateral ventricle. AAV solution or age-matched whole blood was delivered into the lateral ventricle through the piercing using glass capillary pipettes. The skin incision was closed with suture and Vetbond (3M, Minnesota). The pup was warmed and returned to cage after recovery. Whole blood was collected transcardially from littermates anesthetized by hypothermia. Adult: adult intracerebroventricular (ICV) injection followed similar procedures as P4 with the following exceptions: (1) adult mice were anesthetized using isoflurane; (2) a hand drill was used directly above the lateral ventricle; (3) blood donor was anesthetized using ketamine/xylazine.
# Tissues were quickly dissected in cold HBSS and homogenized in RIPA buffer supplemented with protease and phosphatase inhibitors. The homogenate was centrifuged at maximum speed for 10 min. to remove cellular debris. Protein concentration was determined by BCA assay (Thermo Scientific 23227). Samples were denatured in 2% SDS supplemented with 2-Mercaptoethanol by heating at 37° C. for 5 min. […] Band intensity was quantified by FIJI.
compound,measurement,setting,value
"NCCOB(c1ccccc1)c1ccccc1 [2-APB, 2-aminoethoxydiphenyl borate]",epifluorescence calcium responses to plasma,[1],disrupted
O=C(O)CN(CC(=O)O)c1ccccc1OCCOc1ccccc1N(CC(=O)O)CC(=O)O [BAPTA],epifluorescence calcium responses to plasma,[1],disrupted
"O=C(O)CN(CCN(CC(=O)O)CC(=O)O)CC(=O)O [EDTA, ethylenediaminetetraacetic acid]",ventriculomegaly,"[2]; E14.5, ICV injection of blood containing EDTA, 3 weeks after the injection",severe ventriculomegaly
same,epifluorescence calcium responses to plasma,[1],disrupted
"O=C(O)CN(CCOCCOCCN(CC(=O)O)CC(=O)O)CC(=O)O [EGTA, ethylene glycol-bis(β-aminoethyl ether)-N,N,N′,N′-tetraacetic acid]",epifluorescence calcium responses to plasma,[1],disrupted
"[Cl-].[Li+] [LiCl, lithium chloride]",ventriculomegaly,"[2]; E14.5, ICV LiCl 30 min. prior to blood, vs controls, MRI",more pronounced ventriculomegaly
same,ventricular enlargement in two extreme cases,"[2]; E14.5, LiCl pretreatment plus blood",over 200 fold
same,baseline intracranial pressure (ICP),[2]; LiCl pretreatment alone,does not change
same,compliance,[2]; LiCl pretreatment alone,does not change
same,ventricle size,[2]; LiCl treatment alone,did not affect ventricle size
same,intracranial pressure (ICP),[2]; LiCl-Blood mice compared to LiCl-PBS mice,unaltered
same,NKCC1 phosphorylation rate (pNKCC1),NKCC1,decreased NKCC1 phosphorylation rate
same,epifluorescence calcium responses to plasma,[1],disrupted
